According to publication PMC10761937, “Functional engineering of human iPSC‐derived parasympathetic neurons enhances responsiveness to gastrointestinal hormones” (FEBS Open Bio, 2023):
Where no end group is shown, it is not given here.

How the values were obtained:
[1] = test system: HTR3A; assay: Ca^2+ imaging, HTR3A‐HEK293T cells; assay type: cell-based, human; conditions: Fluo‐8 AM, Ringer's solution pH 7.4, ΔF/F 0, n = 10
Description: (§1) HEK293T cells (Lenti‐X 293T Cell line; TaKaRa, Shiga, Japan) were maintained in Dulbecco's Modified Eagle Medium (DMEM; Fujifilm Wako Pure Chemical Industries, Osaka, Japan) supplemented with 10% fetal bovine serum (Biowest, Nuaillé, France), 1% non‐essential amino acids (NEAA) (Fujifilm Wako Pure Chemical Industries), and 1% penicillin–streptomycin (P/S) (Fujifilm Wako Pure Chemical Industries) and cultured in non‐coated culture plates at 37 °C and in an incubator with 5% CO2. The culture medium was replaced every 2–3 days. At 80–90% confluence, the cell colonies were digested into single cells using TrypLE Express (Thermo Fisher Scientific). The resulting cells were used for lentiviral transfection and agonist experiments.
(§2) Figure S1 presents the protocol used for this experiment. Lentiviral vectors were acquired from VectorBuilder (VectorBuilder Japan, Inc., Kanagawa, Japan). […]
(§3) Transduced HEK293T and neurons were incubated with 10 μM Fluo‐8 AM, a calcium indicator (AAT Bioquest, Pleasanton, CA, USA), in each culture medium (Cell lines and cell culture and Induction to parasympathetic neurons sections) at 37 °C for 30 min. […] Fluorescence (excitation: 490 nm, emission: 525 nm) was detected using a confocal spinning disk confocal laser scanning unit (CSU‐W1; Yokogawa Electric, Tokyo, Japan) and an LED light (X‐Cite 120LED; Opto Science, Tokyo, Japan). […]

[2] = test system: rat nodal ganglion cells; conditions: various concentrations; ref [31], [32], [33], [34]; cited from earlier work
Excerpt: Previous reports indicate that rat nodal ganglion cells respond to various concentrations of hormones, including CCK, GLP1, PYY, and 5‐HT [31, 32, 33, 34]. […] However, it is noteworthy that the overexpression of these receptors in our model may not reconstruct natural expres ...

[3] = test system: HTR3A‐neurons; assay: Ca^2+ imaging, directly transduced HTR3A‐neurons; assay type: cell-based, human; conditions: 100 μM 5‐HT; HTR3A‐neurons (transduced during differentiation) day 35; Fluo‐8 AM; n = 20; Student's t‐test vs. 0 μM
Description: (§4) Before initiating differentiation, the iPSCs (1–2 × 10^5 cells·cm^−2; Cell lines and cell culture section) were transferred to 6‐well plates (Corning, Inc., Corning, NY, USA) coated with 2‐methacryloyloxyethyl phosphorylcholine (MPC) polymer (Lipidure CM5206E; NOF, Tokyo, Japan). The cells were maintained in mTeSR1 cGMP medium containing 10 μM Y‐27632 (Fujifilm Wako Pure Chemical Industries) for 2 or 3 days to form embryoid body (EBs) in a rotary shaker at 95 r.p.m. (OS‐762RC; Optime, Tokyo, Japan). Subsequently, iPSCs were differentiated into neural crest cells (NCCs), as previously reported. Briefly, NCCs were induced from Ebs using knockout serum replacement (KSR) medium and N2 medium with graded addition of nerve growth factors and signaling factors. KSR medium was composed of DMEM‐F12 (Fujifilm Wako Pure Chemical Industries), 20% KSR (Thermo Fisher Scientific), 1% NEAA, 1% monothioglycerol (Fujifilm Wako Pure Chemical Industries), and 1% P/S. N2 medium consisted of DMEM‐F12, 1% N2 supplement (Fujifilm Wako Pure Chemical Industries), 1% NEAA, and 1% P/S. When EB formation was considered day 0 of induction, the medium was changed at days 2, 5, 7, 9, and 12. […]

[4] = test system: CCKAR; assay: Ca^2+ imaging, CCKAR‐HEK293T cells; assay type: cell-based, human; conditions: Fluo‐8 AM, Ringer's solution pH 7.4, ΔF/F 0, n = 10, Dunnett's test vs. 0 nM
Description: as §1, §2, §3

[5] = test system: CCKAR‐neurons; assay: MEA recording of neuronal firing, CCKAR‐neurons; assay type: cell-based, human; conditions: 100 nM vs. 0 nM CCK‐33: P = 0.018; day 27; 0 nM n = 128 electrodes, 100 nM n = 57 electrodes; 5 min before and after ligand addition
Description: as §4

[6] = test system: CCKAR‐neurons; assay: Ca^2+ imaging, CCKAR‐neurons (iPSC‐derived); assay type: cell-based, human; conditions: 100 nM CCK‐33; CCKAR‐neurons day 35; Fluo‐8 AM; ΔF stim/F 0; n = 20; Student's t‐test vs. 0 nM
Description: as §4

[7] = test system: GLP2R; assay: Ca^2+ imaging, GLP2R‐HEK293T cells; assay type: cell-based, human; conditions: Fluo‐8 AM, Ringer's solution pH 7.4, ΔF/F 0, n = 20
Description: as §1, §2, §3

[8] = test system: GLP2R‐neurons; assay: Ca^2+ imaging, directly transduced GLP2R‐neurons; assay type: cell-based, human; conditions: 100 nM GLP2; GLP2R‐neurons (transduced during differentiation) day 35; Fluo‐8 AM; n = 20
Description: as §4

## NCCc1c[nH]c2ccc(O)cc12 [5‐HT, 5‐hydroxytryptamine]
[1]
  Concentration giving response (intracellular Ca^2+ concentration): > 10 µM
[2]
  Response of rat nodal ganglion cells: respond
[3]
  Intracellular Ca^2+ concentration: increased intracellular Ca^2+ concentration

## CCK‐8: CCK‐Octapeptide (26–33) (CCK‐8) (4100‐v; Peptide Institute, Inc.) (DYMGWMDF; ends and bridges not checked; UniProt P06307 96-103, looked up)
[4]
  Concentration giving response (change in intracellular Ca^2+ concentration): > 10 nM

## CCK‐33: CCK‐33 (4201‐s; Peptide Institute, Inc.) (KAPSGRMSIVKNLQNLDPSHRISDRDYMGWMDF; ends and bridges not checked; UniProt P06307 71-103, looked up)
[5]
  Neuronal firing frequency change rate: significantly increased the neuronal firing frequency change rate
[6]
  Intracellular Ca^2+ concentration: significantly increased the intracellular Ca^2+ concentration
[4]
  Concentration giving response (change in intracellular Ca^2+ concentration): > 100 nM

## GLP2: GLP2 (4276‐v; Peptide Institute, Inc.) (HADGSFSDEMNTILDNLAARDFINWLIQTKITD; Glucagon-like peptide 2; UniProt P01275 146-178, looked up)
[7]
  Concentration giving response (Ca^2+ imaging): > 100 nM
[8]
  Percentage change in fluorescence intensity: 3%
  Response in Ca^2+ imaging: responded slightly
